Measurements as given in patent publication US20250333406A1, “SULFONYL CYCLIC DERIVATIVES, AND COMPOSITIONS AND METHODS THEREOF” (Lysoway Therapeutics, Inc., priority 2023, published 2025).

System: TFEB
Experiment: TFEB Nuclear Translocation Assay
Format: cell-based
Details: read-out: EC50 of TFEB activation

Compound | EC50 [µM]
CC(C)C(F)(F)c1ccc(S(=O)(=O)n2nc(N3CCN(c4ncc(F)cn4)CC34CC4)c3c(Cl)cccc32)cc1 [Compound 90, 4-chloro-1-[4-(1,1-difluoro-2-methyl-propyl)phenyl]sulfonyl-3-[7-(5-fluoropyrimidin-2-yl)-4,7-diazaspiro [2.5]octan-4-yl]indazole] | ≤ 1
O=S(=O)(c1ccc(C(F)(F)C2CC2)cc1)n1nc(N2CCN(c3ncc(F)cn3)CC23CC3)c2c(Cl)cccc21 [Compound 92, 4-chloro-1-((4-(cyclopropyldifluoromethyl)phenyl)sulfonyl)-3-(7-(5-fluoropyrimidin-2-yl)-4,7-diazaspiro [2.5]octan-4-yl)-1H-indazole] | ≤ 1
O=S(=O)(c1ccc(SC(F)F)cc1)n1nc(N2CCN(c3ncc(F)cn3)CC23CC3)c2c(Cl)cccc21 [Compound 93, 4-chloro-1-[4-(difluoromethylsulfanyl)phenyl]sulfonyl-3-[7-(5-fluoropyrimidin-2-yl)-4,7-diazaspiro [2.5]octan-4-yl]indazole] | ≤ 1
O=S(=O)(c1ccc(C(F)(F)C(F)F)cc1)n1nc(N2CCN(c3ncc(F)cn3)CC23CC3)c2c(Cl)cccc21 [Compound 95, 4-chloro-3-(7-(5-fluoropyrimidin-2-yl)-4,7-diazaspiro [2.5]octan-4-yl)-1-((4-(1,1,2,2-tetrafluoroethyl)phenyl)sulfonyl)-1H-indazole] | ≤ 1
CC(C)(F)c1ccc(S(=O)(=O)n2nc(N3CCN(c4ncc(F)cn4)CC34CC4)c3c(Cl)cccc32)cc1 [Compound 97, 4-chloro-1-((4-(2-fluoropropan-2-yl)phenyl)sulfonyl)-3-(7-(5-fluoropyrimidin-2-yl)-4,7-diazaspiro [2.5]octan-4-yl)-1H-indazole] | ≤ 1
O=S(=O)(c1ccc(C(F)(F)CF)cc1)n1nc(N2CCN(c3ncc(F)cn3)CC23CC3)c2c(Cl)cccc21 [Compound 98, 4-chloro-3-[7-(5-fluoropyrimidin-2-yl)-4,7-diazaspiro [2.5]octan-4-yl]-1-[4-(1,1,2-trifluoroethyl)phenyl]sulfonyl-indazole] | ≤ 1
CC(C)(c1ccc(S(=O)(=O)n2nc(N3CCN(c4ncc(F)cn4)CC34CC4)c3c(Cl)cccc32)cc1)C(F)F [Compound 99, 4-chloro-1-[4-(2,2-difluoro-1,1-dimethyl-ethyl)phenyl]sulfonyl-3-[7-(5-fluoropyrimidin-2-yl)-4,7-diazaspiro[2.5]octan-4-yl]indazole] | ≤ 1
CC(C)(C)c1ncc(S(=O)(=O)n2nc(N3CCN(c4ncc(F)cn4)CC34CC4)c3c(Cl)cccc32)cn1 [Compound 100, 1-(2-tert-butylpyrimidin-5-yl) sulfonyl-4-chloro-3-[7-(5-fluoropyrimidin-2-yl)-4,7-diazaspiro [2.5]octan-4-yl]indazole] | ≤ 1
O=S(=O)(c1ccc(C2(C(F)(F)F)CC2)cc1)n1nc(N2CCN(c3ncc(F)cn3)CC23CC3)c2c(Cl)cccc21 [Compound 101, 4-chloro-3-[7-(5-fluoropyrimidin-2-yl)-4,7-diazaspiro [2.5]octan-4-yl]-1-[4-[1-(trifluoromethyl)cyclopropyl]phenyl]sulfonyl-indazole] | ≤ 1
CCC(F)(F)c1ccc(S(=O)(=O)n2nc(N3CCN(c4ncc(F)cn4)CC34CC4)c3c(Cl)cccc32)cc1 [Compound 102, 4-chloro-1-[4-(1,1-difluoropropyl)phenyl]sulfonyl-3-[7-(5-fluoropyrimidin-2-yl)-4,7-diazaspiro [2.5]octan-4-yl]indazole] | ≤ 1
CC(F)(F)c1ccc(S(=O)(=O)n2nc(N3CCN(c4ncc(F)cn4)CC3C(C)(C)C)c3c(Cl)cccc32)cc1 (stereo not drawn) [Compound 108, 3-[2-tert-butyl-4-(5-fluoropyrimidin-2-yl)piperazin-1-yl]-4-chloro-1-[4-(1,1-difluoroethyl)phenyl]sulfonyl-indazole] | ≤ 1
CC(C)S(=O)(=O)n1ccc(S(=O)(=O)n2nc(N3CCN(c4ncc(F)cn4)CC34CC4)c3c(Cl)cccc32)c1 [Compound 111, 4-chloro-3-[7-(5-fluoropyrimidin-2-yl)-4,7-diazaspiro [2.5]octan-4-yl]-1-(1-isopropylsulfonylpyrrol-3-yl) sulfonyl-indazole] | ≤ 1
O=S(=O)(c1ccc(S(=O)(=O)n2nc(N3CCN(c4ncc(F)cn4)CC34CC4)c3c(Cl)cccc32)cc1)C(F)F [Compound 114, 4-chloro-1-[4-(difluoromethylsulfonyl)phenyl]sulfonyl-3-[7-(5-fluoropyrimidin-2-yl)-4,7-diazaspiro[2.5]octan-4-yl]indazole] | ≤ 1
CC(F)(F)c1ccc(S(=O)(=O)n2nc(N3CCN(c4ncc(F)cn4)CC34CC4)c3c(Cl)cccc32)cc1 [Compound 116, 4-chloro-1-[4-(1,1-difluoroethyl)phenyl]sulfonyl-3-[7-(5-fluoropyrimidin-2-yl)-4,7-diazaspiro[2.5]octan-4-yl]indazole] | ≤ 1
O=S(=O)(c1ccc(OC(F)(F)F)cc1)n1nc(N2CCN(c3ncc(F)cn3)CC23CC3)c2c(Cl)cccc21 [Compound 117, 4-chloro-3-[7-(5-fluoropyrimidin-2-yl)-4,7-diazaspiro [2.5]octan-4-yl]-1-[4-(trifluoromethoxy)phenyl]sulfonyl-indazole] | ≤ 1
O=S(=O)(c1ccc(SC(F)(F)F)cc1)n1nc(N2CCN(c3ncc(F)cn3)CC23CC3)c2c(Cl)cccc21 [Compound 118, 4-chloro-3-[7-(5-fluoropyrimidin-2-yl)-4,7-diazaspiro[2.5]octan-4-yl]-1-[4-(trifluoromethylsulfanyl)phenyl]sulfonyl-indazole] | ≤ 1
CC(F)(F)c1ccc(S(=O)(=O)n2nc(N3CCN(C4COC4)CC34CC4)c3c(Cl)cccc32)cc1 [Compound 119, 4-chloro-1-((4-(1,1-difluoroethyl)phenyl)sulfonyl)-3-(7-(oxetan-3-yl)-4,7-diazaspiro[2.5]octan-4-yl)-1H-indazole] | ≤ 1
CC(F)(F)c1ccc(S(=O)(=O)n2nc(N3CCN(C4COC4)CC3C(F)(F)F)c3c(Cl)cccc32)cc1 (stereo not drawn) [Compound 120, 4-chloro-1-((4-(1,1-difluoroethyl)phenyl)sulfonyl)-3-(4-(oxetan-3-yl)-2-(trifluoromethyl)piperazin-1-yl)-1H-indazole] | ≤ 1

The remaining lines, values ahead:

EC50 [µM] | Compound
≤ 1 | CC(F)(F)c1ccc(S(=O)(=O)n2nc(N3CCN(c4ncc(F)cn4)CC34CC4)c3c(Cl)cc(F)cc32)cc1 [Compound 91, 4-chloro-1-[4-(1,1-difluoroethyl)phenyl]sulfonyl-6-fluoro-3-[7-(5-fluoropyrimidin-2-yl)-4,7-diazaspiro [2.5]octan-4-yl]indazole]
≤ 1 | CC(C)(C)c1ccc(S(=O)(=O)n2nc(N3CCN(c4ncc(F)cn4)CC34CC4)c3c(Cl)cccc32)cc1 [Compound 94, 1-((4-(tert-butyl)phenyl)sulfonyl)-4-chloro-3-(7-(5-fluoropyrimidin-2-yl)-4,7-diazaspiro [2.5]octan-4-yl)-1H-indazole]
≤ 1 | CC(C)(CF)c1ccc(S(=O)(=O)n2nc(N3CCN(c4ncc(F)cn4)CC34CC4)c3c(Cl)cccc32)cc1 [Compound 96, 4-chloro-1-[4-(2-fluoro-1,1-dimethyl-ethyl)phenyl]sulfonyl-3-[7-(5-fluoropyrimidin-2-yl)-4,7-diazaspiro [2.5]octan-4-yl]indazole]
≤ 1 | CC(F)(F)c1ccc(S(=O)(=O)n2nc(N3CCN(c4ncc(F)cn4)CC34CC4)c3c(Cl)ccc(F)c32)cc1 [Compound 103, 4-chloro-1-[4-(1,1-difluoroethyl)phenyl]sulfonyl-7-fluoro-3-[7-(5-fluoropyrimidin-2-yl)-4,7-diazaspiro [2.5]octan-4-yl]indazole]
≤ 1 | CC(F)(F)c1ccc(S(=O)(=O)n2nc(N3CCC3C(F)(F)F)c3c(Cl)cccc32)cc1 (stereo not drawn) [Compound 104, 4-chloro-1-[4-(1,1-difluoroethyl)phenyl]sulfonyl-3-[2-(trifluoromethyl)azetidin-1-yl]indazole]
≤ 1 | CC(F)(F)c1ccc(S(=O)(=O)n2nc(N3CCN(c4ncc(F)cn4)CC3C(C)(C)F)c3c(Cl)cccc32)cc1 (stereo not drawn) [Compound 105, 4-chloro-1-((4-(1,1-difluoroethyl)phenyl)sulfonyl)-3-(2-(2-fluoropropan-2-yl)-4-(5-fluoropyrimidin-2-yl)piperazin-1-yl)-1H-indazole]
≤ 1 | CC(F)(F)c1ccc(S(=O)(=O)n2nc(N3CCN(c4ncc(F)cn4)C[C@H]3C(F)(F)F)c3c(Cl)cccc32)cc1 [Compound 106, 4-chloro-1-[4-(1,1-difluoroethyl)phenyl]sulfonyl-3-[(2S)-4-(5-fluoropyrimidin-2-yl)-2-(trifluoromethyl)piperazin-1-yl]indazole]
≤ 1 | CC(C)S(=O)(=O)c1ccc(S(=O)(=O)n2nc(N3CCC[C@@H]3C(F)(F)F)c3c(Cl)cccc32)cc1 [Compound 109, 4-chloro-1-(4-isopropylsulfonylphenyl)sulfonyl-3-[(2R)-2-(trifluoromethyl)pyrrolidin-1-yl]indazole]
≤ 1 | O=S(=O)(c1ccc(C(F)F)cc1)n1nc(N2CCN(c3ncc(F)cn3)CC2C2CC2)c2c(Cl)cccc21 (stereo not drawn) [Compound 112, 4-chloro-3-[2-cyclopropyl-4-(5-fluoropyrimidin-2-yl)piperazin-1-yl]-1-[4-(difluoromethyl)phenyl]sulfonyl-indazole]
≤ 1 | O=S(=O)(c1ccc(C(F)(F)F)cc1)n1nc(N2CCN(c3ncc(F)cn3)CC23CC3)c2c(Cl)cccc21 [Compound 113, 4-chloro-3-[7-(5-fluoropyrimidin-2-yl)-4,7-diazaspiro[2.5]octan-4-yl]-1-[4-(trifluoromethyl)phenyl]sulfonyl-indazole]
≤ 1 | O=S(=O)(c1ccc(OC(F)F)cc1)n1nc(N2CCN(c3ncc(F)cn3)CC23CC3)c2c(Cl)cccc21 [Compound 115, 4-chloro-1-[4-(difluoromethoxy)phenyl]sulfonyl-3-[7-(5-fluoropyrimidin-2-yl)-4,7-diazaspiro[2.5]octan-4-yl]indazole]
≤ 1 | CC(F)(F)c1ccc(S(=O)(=O)n2nc(N3CCN(c4ncc(F)cn4)C[C@H]3C(C)(C)F)c3c(Cl)cccc32)cc1 [Compound 121, (S)-4-chloro-1-((4-(1,1-difluoroethyl)phenyl)sulfonyl)-3-(2-(2-fluoropropan-2-yl)-4-(5-fluoropyrimidin-2-yl)piperazin-1-yl)-1H-indazole]
